Where two headings read alike, the source gives them in different places.
Columns and labels:
H3K9AC (HT1080 cells) = assay: H3K9AC Sandwich ELISA Assay in HT1080 cells (KAT2A primary cell-based screening assay); design: species or system Human
Outline: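 Acetylated H3K9 quantified by luminescent sandwich ELISA (total H3 capture, H3K9ac detection) on HCl lysates of HT1080 cells. Cells had 24 h compound exposure at 37 °C, top concentration 10 µM, 10-point 3-fold series, 0.1% DMSO; IC50 from four-parameter fitting.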

MM.1S cells = assay: MM1.S 10 Day Proliferation Assay (CellTiter-Glo); type: cell-based, Human
Outline: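 MM.1S cells, 500/well in ultra-low-attachment plates, were pre-incubated 16 h, then exposed to a 10-point 1:3 dilution series (top 10 μM final, 0.1% DMSO) for 10 days at 37 °C, with compound-containing medium refreshed at day 5. Viability was read by CellTiter-Glo luminescence; IC50 came from four-parameter fit.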

KAT2A = KAT2A (Homo sapiens (Human), UniProt Q92830); assay: KAT2A acetyltransferase biochemical assay (RapidFire mass spectrometry, AcCoA to CoA)
KAT2B = KAT2B (Homo sapiens (Human), UniProt Q92831); assay: KAT2B acetyltransferase biochemical assay (RapidFire mass spectrometry, AcCoA to CoA)
[1] = KAT2A Ki at 1 μM AcCoA, 5 μM H3 1-21 peptide, 0.5 nM KAT2A, 90-minute reaction
[2] = Homo sapiens, HT-1080, H3K9AC sandwich ELISA
[3] = read-out: KAT2A Ki at 1 μM AcCoA, 5 μM H3 1-21 peptide, 0.5 nM KAT2A, 90-minute reaction
[4] = read-out: KAT2B Ki at 1 μM AcCoA, 1 μM AcCoA, 5 μM H3 1-21 peptide, 0.5 nM KAT2B, 90-minute reaction

Sequence of KAT2A (Q92830 whole entry): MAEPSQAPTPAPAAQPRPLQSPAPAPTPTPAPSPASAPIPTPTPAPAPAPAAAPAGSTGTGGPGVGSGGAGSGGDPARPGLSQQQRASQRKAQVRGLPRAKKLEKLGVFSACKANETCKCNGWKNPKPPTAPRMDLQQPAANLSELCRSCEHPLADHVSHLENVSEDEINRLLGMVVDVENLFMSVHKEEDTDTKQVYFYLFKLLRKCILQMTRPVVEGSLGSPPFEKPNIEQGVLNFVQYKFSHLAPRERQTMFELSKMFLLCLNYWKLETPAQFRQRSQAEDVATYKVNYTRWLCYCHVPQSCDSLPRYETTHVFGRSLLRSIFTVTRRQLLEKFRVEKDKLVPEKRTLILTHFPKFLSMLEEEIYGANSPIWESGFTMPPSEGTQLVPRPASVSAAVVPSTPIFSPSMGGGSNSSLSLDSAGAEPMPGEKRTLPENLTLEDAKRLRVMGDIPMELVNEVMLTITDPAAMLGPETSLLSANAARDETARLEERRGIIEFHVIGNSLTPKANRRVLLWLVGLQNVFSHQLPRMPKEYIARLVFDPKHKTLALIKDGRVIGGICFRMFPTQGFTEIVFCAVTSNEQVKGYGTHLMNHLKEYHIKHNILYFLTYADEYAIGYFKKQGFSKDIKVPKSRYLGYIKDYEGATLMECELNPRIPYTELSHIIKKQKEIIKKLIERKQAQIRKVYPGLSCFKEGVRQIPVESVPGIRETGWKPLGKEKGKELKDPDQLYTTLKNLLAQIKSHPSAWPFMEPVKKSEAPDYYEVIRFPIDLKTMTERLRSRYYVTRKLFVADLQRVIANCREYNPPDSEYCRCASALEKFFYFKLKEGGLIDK
Sequence of KAT2B (Q92831 2-832): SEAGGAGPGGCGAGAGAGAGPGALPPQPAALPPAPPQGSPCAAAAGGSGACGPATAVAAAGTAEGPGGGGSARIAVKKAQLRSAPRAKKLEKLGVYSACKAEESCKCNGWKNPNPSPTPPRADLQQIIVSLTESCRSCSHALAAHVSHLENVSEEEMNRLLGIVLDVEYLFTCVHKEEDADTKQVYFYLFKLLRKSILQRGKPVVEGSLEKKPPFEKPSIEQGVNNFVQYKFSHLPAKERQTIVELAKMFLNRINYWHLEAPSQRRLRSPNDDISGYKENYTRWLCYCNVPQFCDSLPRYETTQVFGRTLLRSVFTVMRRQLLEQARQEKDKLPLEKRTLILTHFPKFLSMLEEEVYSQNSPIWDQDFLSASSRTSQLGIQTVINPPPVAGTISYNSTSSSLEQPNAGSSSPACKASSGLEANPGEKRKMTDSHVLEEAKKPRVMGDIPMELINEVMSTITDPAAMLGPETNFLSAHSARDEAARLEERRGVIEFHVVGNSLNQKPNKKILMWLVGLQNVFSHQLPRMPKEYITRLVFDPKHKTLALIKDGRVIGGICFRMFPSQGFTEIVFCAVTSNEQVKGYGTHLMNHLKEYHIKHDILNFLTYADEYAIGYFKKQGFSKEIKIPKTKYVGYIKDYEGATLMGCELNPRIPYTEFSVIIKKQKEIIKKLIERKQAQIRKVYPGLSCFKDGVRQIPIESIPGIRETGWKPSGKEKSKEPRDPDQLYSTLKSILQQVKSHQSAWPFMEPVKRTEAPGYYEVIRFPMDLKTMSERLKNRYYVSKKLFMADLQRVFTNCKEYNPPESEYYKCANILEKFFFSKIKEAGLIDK

| IC50 (H3K9AC (HT1080 cells); H3K9AC sandwich ELISA) [nM] | IC50 (MM.1S cells; Homo sapiens, MM1.S, 240 h) [nM] | Ki (KAT2A; [1]) [nM] | Ki (KAT2B) [nM] | IC50 (H3K9AC (HT1080 cells); [2]) [nM] | Ki (KAT2A; [3]) [nM] | Ki (KAT2B; [4]) [nM] | IC50 (MM.1S cells) [nM] | Structure (SMILES) |
| --- | --- | --- | --- | --- | --- | --- | --- | --- |
| 3.14 | 7.51 | 0.13 | 0.13 |  |  |  |  | CCS(=O)(=O)NC(=O)C(C)(C)c1ccc(O[C@@H]2CC[C@@H](NC(=O)C3(F)CNC4(CCC4)C3)C2)c(-c2cccc(F)c2C2CCC2)c1 (single isomer, unassigned) [Example B2] |
|  | 8.38 |  |  | 3.12 | 0.14 | 0.15 |  | CC(C)S(=O)(=O)NC(=O)C(C)(C)c1ccc(O[C@@H]2CC[C@@H](NC(=O)[C@]3(F)CNC4(CCC4)C3)C2)c(-c2cccc(F)c2C2CCC2)c1 (single isomer, unassigned) [Example B4] |
| 1.96 |  |  |  |  | 0.14 | 0.35 | 38.8 | CCS(=O)(=O)NC(=O)C(C)(C)c1ccc(O[C@@H]2CC[C@@H](NC(=O)[C@@]3(F)CNC(C)(C)C3)C2)c(-c2cccc(F)c2C2CCC2)c1 (single isomer, unassigned) [Example B13] |
|  | 1.76 |  |  | 0.93 | 0.05 | 0.06 |  | CCS(=O)(=O)NC(=O)C(C)(C)c1ccc(O[C@@H]2CC[C@@H](NC(=O)[C@@]3(F)CNC4(CCCC4)C3)C2)c(-c2cccc(F)c2C2CCC2)c1 (single isomer, unassigned) [Example B20] |
|  | 5 |  |  | 2.7 | 0.14 | 0.19 |  | CC1(C)CNCC(F)(C(=O)N[C@@H]2CC[C@@H](Oc3ccc(C(C)(C)C(=O)NS(=O)(=O)C4CC4)cc3-c3cccc(F)c3C3CCC3)C2)C1 (single isomer, unassigned) [Example B28] |
| 1.25 |  |  |  |  | 0.26 | 0.14 | 5.49 | CC(C)(C(=O)NS(C)(=O)=O)c1ccc(O[C@@H]2CC[C@@H](NC(=O)[C@@]3(F)CNC4(CCCC4)C3)C2)c(-c2cccc(F)c2C2CCC2)c1 (single isomer, unassigned) [Example C4] |
|  | 12.6 |  |  | 10.2 | 0.17 | 0.18 |  | CC1(C)C[C@@](F)(C(=O)N[C@@H]2CC[C@@H](Oc3ccc(C(C)(C)C(=O)NS(C)(=O)=O)cc3-c3cccc(F)c3C3CCC3)C2)CN1 (single isomer, unassigned) [Example C5] |
|  | 17.5 |  |  | 5.79 | 0.07 | 0.04 |  | CC1(C)C[C@@](F)(C(=O)N[C@@H]2CC[C@@H](Oc3ccc(C(C)(C)C(=O)NS(=O)(=O)N4CCC4)cc3-c3cccc(F)c3C3CCC3)C2)CN1 (single isomer, unassigned) [Example C7] |
|  | 13.7 |  |  | 6.96 | 0.06 | 0.17 |  | CN(C)S(=O)(=O)NC(=O)C(C)(C)c1ccc(O[C@@H]2CC[C@@H](NC(=O)[C@@]3(F)CNC(C)(C)C3)C2)c(-c2cccc(F)c2C2CCC2)c1 (single isomer, unassigned) [Example C9] |
|  | 89.6 |  |  | 11 | 0.5 | 0.93 |  | CCc1c(F)cccc1-c1cc(C(C)(C)C(=O)NS(C)(=O)=O)ccc1O[C@@H]1CC[C@@H](NC(=O)[C@]2(F)CNC3(CCC3)C2)C1 (single isomer, unassigned) [Example C12] |
|  | 63.7 |  |  | 17.7 | 1.41 | 5.62 |  | CC(C)(C(=O)NS(C)(=O)=O)c1ccc(O[C@@H]2CC[C@@H](NC(=O)[C@]3(F)CNC4(CCC4)C3)C2)c(-c2cccc(F)c2C2CC2)c1 (single isomer, unassigned) [Example C14] |
| 23.2 |  |  |  |  | 0.08 | 0.06 | 81.8 | CC(C)(C(=O)NS(C)(=O)=O)c1ccc(O[C@@H]2CC[C@@H](NC(=O)[C@@]3(F)CNC4(CCCC4)C3)C2)c(-c2cccc(F)c2C2CCC2)c1 (single isomer, unassigned) [Example C16] |
| 5.06 |  |  |  |  | 0.12 | 0.8 | 66.7 | CC(C)c1c(F)cccc1-c1cc(C(C)(C)C(=O)NS(C)(=O)=O)ccc1O[C@@H]1CC[C@@H](NC(=O)[C@@]2(F)CNC3(CCC3)C2)C1 (single isomer, unassigned) [Example C19] |
| 1.11 | 13.7 |  |  |  | 0.09 | 0.11 |  | CC(C)(C(=O)NS(=O)(=O)C1(C)CC1)c1ccc(O[C@@H]2CC[C@@H](NC(=O)[C@@]3(F)CNC4(CCC4)C3)C2)c(-c2cccc(F)c2C2CC2)c1 (single isomer, unassigned) [Example C21] |
|  | 9.83 |  |  | 2.77 | 0.34 | 0.22 |  | CCc1c(F)cccc1-c1cc(C(C)(C)C(=O)NS(=O)(=O)CC)ccc1O[C@@H]1CC[C@@H](NC(=O)[C@@]2(F)CNC3(CCCC3)C2)C1 (single isomer, unassigned) [Example C24] |
| 1.71 |  |  |  |  | 0.14 | 0.55 | 9.29 | CCc1c(F)cccc1-c1cc(C(C)(C)C(=O)NS(=O)(=O)CC)ccc1O[C@@H]1CC[C@@H](NC(=O)[C@@]2(F)CNC3(CCCC3)C2)C1 (single isomer, unassigned) [Example C25] |
|  | 12.8 |  |  | 2.62 | 0.16 | 0.53 |  | CCc1c(F)cccc1-c1cc(C(C)(C)C(=O)NS(C)(=O)=O)ccc1O[C@@H]1CC[C@@H](NC(=O)[C@@]2(F)CNC3(CCCC3)C2)C1 (single isomer, unassigned) [Example C27] |
|  | 7.11 |  |  | 1.86 | 0.14 | 0.47 |  | CCc1c(F)cccc1-c1cc(C(C)(C)C(=O)NS(=O)(=O)C(C)C)ccc1O[C@@H]1CC[C@@H](NC(=O)[C@@]2(F)CNC3(CCCC3)C2)C1 (single isomer, unassigned) [Example C29] |
| 1.5 | 3.5 | 0.02 | 0.07 |  |  |  |  | CC(C)S(=O)(=O)NC(=O)Cc1ccc(O[C@@H]2CC[C@@H](NC(=O)[C@]3(F)CNC4(CCC4)C3)C2)c(-c2cccc(F)c2C2CCC2)c1 (single isomer, unassigned) [Example C40] |
| 3.88 | 20.6 |  |  |  | 0.26 | 0.46 |  | Cn1cc(-c2ccc(O[C@@H]3CC[C@@H](NC(=O)[C@]4(F)CNC5(CCC5)C4)C3)c(-c3cccc(F)c3C3CCC3)c2)c(C(C)(C)C(=O)O)n1 (single isomer, unassigned) [Example J7] |
| 19.5 | 52 |  |  |  | 0.27 | 0.49 |  | Cn1cc(-c2ccc(O[C@@H]3CC[C@@H](NC(=O)[C@]4(F)CNC5(CCC5)C4)C3)c(-c3cccc(F)c3C3CCC3)c2)c(C(=O)O)n1 (single isomer, unassigned) [Example J10] |
|  | 15.9 |  |  | 4.29 | 0.19 | 0.56 |  | CN1CC(C)(C)C[C@H]1C(=O)N[C@H]1C[C@H](Oc2ccc(C(=O)O)cc2-c2cccc(F)c2C2CCC2)C[C@H]1O (single isomer, unassigned) [Example K3, 2′-cyclobutyl-3′-fluoro-6-({(1ξ,3ξ,4ξ)-3-hydroxy-4-[(1,4,4-trimethyl-L-prolyl)amino]cyclopentyl}oxy)[1,1′-biphenyl]-3-carboxylic acid] |
|  | 6.22 |  |  | 3.84 | 0.05 | 0.06 |  | CC(C)(C(=O)NS(=O)(=O)N1CCC1)c1ccc(O[C@@H]2CC[C@@H](NC(=O)[C@@]3(F)CNC4(CCC4)C3)C2)c(-c2cccc(F)c2C2CCC2)c1 [Example C3, (7S)-N-{(1R,3R)-3-[(5-{1-[(azetidin-1-ylsulfonyl)amino]-2-methyl-1-oxopropan-2-yl}-2′-cyclobutyl-3′-fluorobiphenyl-2-yl)oxy]cyclopentyl}-7-fluoro-5-azaspiro[3.4]octane-7-carboxamide] |
|  | 30.6 |  |  | 2.34 | 0.1 | 0.31 |  | CCc1c(F)cccc1-c1cc(C(C)(C)C(=O)NS(=O)(=O)C(C)C)ccc1O[C@@H]1CC[C@@H](NC(=O)[C@@]2(F)CNC3(CCC3)C2)C1 [Example C18, (7S)-N-[(1R,3R)-3-({2′-ethyl-3′-fluoro-5-[2-methyl-1-oxo-1-(propane-2-sulfonamido)propan-2-yl][1,1′-biphenyl]-2-yl}oxy)cyclopentyl]-7-fluoro-5-azaspiro[3.4]octane-7-carboxamide] |
|  | 193 |  |  | 39.2 | 9.48 | 22.2 |  | CN1CC(C)(C)C[C@H]1C(=O)N[C@@H]1CC[C@@H](Oc2ccc(CC(=O)O)cc2-c2cccc(F)c2C2CCC2)C1 [Example D10, [2′-cyclobutyl-3′-fluoro-6-({(1R,3R)-3-[(1,4,4-trimethyl-L-prolyl)amino]cyclopentyl}oxy)[1,1′-biphenyl]-3-yl]acetic acid] |
|  | 31.5 |  |  | 5.06 | 0.15 | 0.38 |  | CN1CC(C)(C)C[C@H]1C(=O)N[C@@H]1CC[C@@H](Oc2ccc(C(C)(C)C(=O)NS(C)(=O)=O)cc2-c2cccc(F)c2C2CCC2)C1 [Example E1, N-{(1R,3R)-3-[(2′-cyclobutyl-3′-fluoro-5-{1-[(methanesulfonyl)amino]-2-methyl-1-oxopropan-2-yl}[1, 1′-biphenyl]-2-yl)oxy]cyclopentyl}-1,4,4-trimethyl-L-prolinamide] |
